{"source": "patent US20240226125A1", "about": "“USE OF SOTAGLIFLOZIN FOR THE TREATMENT OF PATIENTS WITH TYPE 1 DIABETES MELLITUS” (priority 2019, published 2024)", "system": "adult patients with Type 1 Diabetes Mellitus who have inadequate glycemic control with insulin therapy", "experiment": "inTandem 1 and inTandem 2 pooled clinical studies, safety events / main risks", "assay_type": "in vivo, human", "settings": "Week 52", "key": {"[1]": {"settings": "200 mg (N = 219), Baseline BMI <27 kg/m^2"}, "[2]": {"settings": "200 mg (N = 305), Baseline BMI ≥27 kg/m^2"}, "[3]": {"settings": "200 mg, Baseline BMI <27 kg/m^2"}, "[4]": {"settings": "200 mg, Baseline BMI ≥27 kg/m^2"}, "[5]": {"settings": "400 mg (N = 212), Baseline BMI <27 kg/m^2"}, "[6]": {"settings": "400 mg (N = 313), Baseline BMI ≥27 kg/m^2"}}, "data": [{"smiles": "CCOc1ccc(Cc2cc([C@@H]3O[C@H](SC)[C@@H](O)[C@H](O)[C@H]3O)ccc2Cl)cc1", "note": "[sotagliflozin, (2S,3R,4R,5S,6R)-2-(4-chloro-3-(4-ethoxybenzyl)phenyl)-6-(methylthio)tetrahydro-2H-pyran-3,4,5-triol]", "values": [{"measurement": "Genital Mycotic Infections (male), Events [n (%) n]: patients n", "setting": "200 mg (N = 108), Baseline BMI <27 kg/m^2", "result": 2}, {"measurement": "Genital Mycotic Infections (female), Events [n (%) n]: patients n", "setting": "200 mg (N = 111), Baseline BMI <27 kg/m^2", "result": 8}, {"measurement": "Genital Mycotic Infections (female), Events [n (%) n]: patients n", "setting": "200 mg (N = 148), Baseline BMI ≥27 kg/m^2", "result": 32}, {"measurement": "Genital Mycotic Infections (male), Events [n (%) n]: patients n", "setting": "200 mg (N = 157), Baseline BMI ≥27 kg/m^2", "result": 6}, {"measurement": "Positively Adjudicated Diabetic Ketoacidosis, Events [n (%) n]: patients n", "setting": "[1]", "result": 7}, {"measurement": "Positively Adjudicated Severe Hypoglycemia, Events [n (%) n]: patients n", "setting": "[1]", "result": 17}, {"measurement": "Positively Adjudicated Diabetic Ketoacidosis, Events [n (%) n]: patients n", "setting": "[2]", "result": 8}, {"measurement": "Positively Adjudicated Severe Hypoglycemia, Events [n (%) n]: patients n", "setting": "[2]", "result": 13}, {"measurement": "Diarrhea, EAIR per 1,000 Subject-years (95% CL)", "setting": "[3]", "result": "89.76 (48.29, 131.23) per 1,000 Subject-years"}, {"measurement": "Diarrhea, Events [n (%) n]: events n", "setting": "[3]", "result": 23}, {"measurement": "Diarrhea, Events [n (%) n]: patients (%)", "setting": "[3]", "result": 8.2, "unit": "%"}, {"measurement": "Diarrhea, Events [n (%) n]: patients n", "setting": "[3]", "result": 18}, {"measurement": "Diarrhea, Events per Subject per Year", "setting": "[3]", "result": "0.115 Events per Subject per Year"}, {"measurement": "Diarrhea, Relative Risk of EAIR (95% CL) Versus Placebo", "setting": "[3]", "result": "2.60 (1.11, 6.68)"}, {"measurement": "Documented hypoglycemia <55 mg/dL, Events per Subject per Year", "setting": "[3]", "result": "16.86 Events per Subject per Year"}, {"measurement": "Genital Mycotic Infections (female), EAIR per 1,000 Subject-years (95% CL)", "setting": "[3]", "result": "78.17 (24.00, 132.34) per 1,000 Subject-years"}, {"measurement": "Genital Mycotic Infections (female), Events [n (%) n]: events n", "setting": "[3]", "result": 10}, {"measurement": "Genital Mycotic Infections (female), Events [n (%) n]: patients (%)", "setting": "[3]", "result": 7.2, "unit": "%"}, {"measurement": "Genital Mycotic Infections (female), Events per Subject per Year", "setting": "[3]", "result": "0.098 Events per Subject per Year"}, {"measurement": "Genital Mycotic Infections (female), Relative Risk of EAIR (95% CL) Versus Placebo", "setting": "[3]", "result": "2.57 (0.70, 11.96)"}, {"measurement": "Genital Mycotic Infections (male), EAIR per 1,000 Subject-years (95% CL)", "setting": "[3]", "result": "20.37 (0.00, 48.60) per 1,000 Subject-years"}, {"measurement": "Genital Mycotic Infections (male), Events [n (%) n]: events n", "setting": "[3]", "result": 2}, {"measurement": "Genital Mycotic Infections (male), Events [n (%) n]: patients (%)", "setting": "[3]", "result": 1.9, "unit": "%"}, {"measurement": "Genital Mycotic Infections (male), Events per Subject per Year", "setting": "[3]", "result": "0.020 Events per Subject per Year"}, {"measurement": "Genital Mycotic Infections (male), Relative Risk of EAIR (95% CL) Versus Placebo", "setting": "[3]", "result": "1.06 (0.11, 10.19)"}, {"measurement": "Positively Adjudicated Diabetic Ketoacidosis, EAIR per 1,000 Subject-years (95% CL)", "setting": "[3]", "result": "34.91 (9.05, 60.77) per 1,000 Subject-years"}, {"measurement": "Positively Adjudicated Diabetic Ketoacidosis, Events [n (%) n]: events n", "setting": "[3]", "result": 7}, {"measurement": "Positively Adjudicated Diabetic Ketoacidosis, Events [n (%) n]: patients (%)", "setting": "[3]", "result": 3.2, "unit": "%"}, {"measurement": "Positively Adjudicated Diabetic Ketoacidosis, Events per Subject per Year", "setting": "[3]", "result": "0.035 Events per Subject per Year"}, {"measurement": "Positively Adjudicated Severe Hypoglycemia, EAIR per 1,000 Subject-years (95% CL)", "setting": "[3]", "result": "84.77 (44.48, 125.07) per 1,000 Subject-years"}, {"measurement": "Positively Adjudicated Severe Hypoglycemia, Events [n (%) n]: events n", "setting": "[3]", "result": 43}, {"measurement": "Positively Adjudicated Severe Hypoglycemia, Events [n (%) n]: patients (%)", "setting": "[3]", "result": 7.8, "unit": "%"}, {"measurement": "Positively Adjudicated Severe Hypoglycemia, Events per Subject per Year", "setting": "[3]", "result": "0.214 Events per Subject per Year"}, {"measurement": "Positively Adjudicated Severe Hypoglycemia, Relative Risk of EAIR (95% CL) Versus Placebo", "setting": "[3]", "result": "1.01 (0.51, 2.00)"}, {"measurement": "Diarrhea, EAIR per 1,000 Subject-years (95% CL)", "setting": "[4]", "result": "57.25 (29.20, 85.30) per 1,000 Subject-years"}, {"measurement": "Diarrhea, Events [n (%) n]: events n", "setting": "[4]", "result": 22}, {"measurement": "Diarrhea, Events [n (%) n]: patients (%)", "setting": "[4]", "result": 5.2, "unit": "%"}, {"measurement": "Diarrhea, Events [n (%) n]: patients n", "setting": "[4]", "result": 16}, {"measurement": "Diarrhea, Events per Subject per Year", "setting": "[4]", "result": "0.079 Events per Subject per Year"}, {"measurement": "Diarrhea, Relative Risk of EAIR (95% CL) Versus Placebo", "setting": "[4]", "result": "0.78 (0.40, 1.51)"}, {"measurement": "Documented hypoglycemia <55 mg/dL, Events per Subject per Year", "setting": "[4]", "result": "13.41 Events per Subject per Year"}, {"measurement": "Genital Mycotic Infections (female), EAIR per 1,000 Subject-years (95% CL)", "setting": "[4]", "result": "240.02 (156.86, 323.19) per 1,000 Subject-years"}, {"measurement": "Genital Mycotic Infections (female), Events [n (%) n]: events n", "setting": "[4]", "result": 41}, {"measurement": "Genital Mycotic Infections (female), Events [n (%) n]: patients (%)", "setting": "[4]", "result": 21.6, "unit": "%"}, {"measurement": "Genital Mycotic Infections (female), Events per Subject per Year", "setting": "[4]", "result": "0.308 Events per Subject per Year"}, {"measurement": "Genital Mycotic Infections (female), Relative Risk of EAIR (95% CL) Versus Placebo", "setting": "[4]", "result": "3.37 (1.65, 7.46)"}, {"measurement": "Genital Mycotic Infections (male), EAIR per 1,000 Subject-years (95% CL)", "setting": "[4]", "result": "41.05 (8.20, 73.89) per 1,000 Subject-years"}, {"measurement": "Genital Mycotic Infections (male), Events [n (%) n]: events n", "setting": "[4]", "result": 7}, {"measurement": "Genital Mycotic Infections (male), Events [n (%) n]: patients (%)", "setting": "[4]", "result": 3.8, "unit": "%"}, {"measurement": "Genital Mycotic Infections (male), Events per Subject per Year", "setting": "[4]", "result": "0.048 Events per Subject per Year"}, {"measurement": "Genital Mycotic Infections (male), Relative Risk of EAIR (95% CL) Versus Placebo", "setting": "[4]", "result": "5.96 (0.88, 138.01)"}, {"measurement": "Positively Adjudicated Diabetic Ketoacidosis, EAIR per 1,000 Subject-years (95% CL)", "setting": "[4]", "result": "28.62 (8.79, 48.46) per 1,000 Subject-years"}, {"measurement": "Positively Adjudicated Diabetic Ketoacidosis, Events [n (%) n]: events n", "setting": "[4]", "result": 9}, {"measurement": "Positively Adjudicated Diabetic Ketoacidosis, Events [n (%) n]: patients (%)", "setting": "[4]", "result": 2.6, "unit": "%"}, {"measurement": "Positively Adjudicated Diabetic Ketoacidosis, Events per Subject per Year", "setting": "[4]", "result": "0.032 Events per Subject per Year"}, {"measurement": "Positively Adjudicated Diabetic Ketoacidosis, Relative Risk of EAIR (95% CL) Versus Placebo", "setting": "[4]", "result": "7.77 (1.24, 173.82)"}, {"measurement": "Positively Adjudicated Severe Hypoglycemia, EAIR per 1,000 Subject-years (95% CL)", "setting": "[4]", "result": "46.51 (21.23, 71.80) per 1,000 Subject-years"}, {"measurement": "Positively Adjudicated Severe Hypoglycemia, Events [n (%) n]: events n", "setting": "[4]", "result": 25}, {"measurement": "Positively Adjudicated Severe Hypoglycemia, Events [n (%) n]: patients (%)", "setting": "[4]", "result": 4.3, "unit": "%"}, {"measurement": "Positively Adjudicated Severe Hypoglycemia, Events per Subject per Year", "setting": "[4]", "result": "0.089 Events per Subject per Year"}, {"measurement": "Positively Adjudicated Severe Hypoglycemia, Relative Risk of EAIR (95% CL) Versus Placebo", "setting": "[4]", "result": "0.57 (0.28, 1.14)"}, {"measurement": "Genital Mycotic Infections (male), Events [n (%) n]: patients n", "setting": "400 mg (N = 99), Baseline BMI <27 kg/m^2", "result": 9}, {"measurement": "Genital Mycotic Infections (female), Events [n (%) n]: patients n", "setting": "400 mg (N = 113), Baseline BMI <27 kg/m^2", "result": 19}, {"measurement": "Genital Mycotic Infections (male), Events [n (%) n]: patients n", "setting": "400 mg (N = 154), Baseline BMI ≥27 kg/m^2", "result": 7}, {"measurement": "Genital Mycotic Infections (female), Events [n (%) n]: patients n", "setting": "400 mg (N = 159), Baseline BMI ≥27 kg/m^2", "result": 28}, {"measurement": "Positively Adjudicated Diabetic Ketoacidosis, Events [n (%) n]: patients n", "setting": "[5]", "result": 9}, {"measurement": "Positively Adjudicated Severe Hypoglycemia, Events [n (%) n]: patients n", "setting": "[5]", "result": 11}, {"measurement": "Positively Adjudicated Diabetic Ketoacidosis, Events [n (%) n]: patients n", "setting": "[6]", "result": 11}, {"measurement": "Positively Adjudicated Severe Hypoglycemia, Events [n (%) n]: patients n", "setting": "[6]", "result": 12}]}]}
